We go through 21 compounds from US9809583B2 (priority 2014, dated 2017).

The target in experiment [1] is T1, androgen receptor (hAR) (Homo sapiens (Human), UniProt P10275). The experiment in a line: Test of transcriptional activity (hAR / ARE-Luc dual-luciferase assay in CHO cells). The format is cell-based. As to conditions: CHO cells with hAR and ARE-Luc, 24 hours, 10 nM DHT = 100%. The procedure, abridged:
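CHO cells cultured 24 h, then transfected with hAR and ARE-Luc plasmids. Transfected cells treated with 0.1˜10,000 nM compound for 24 h; transcriptional activity read by dual-luciferase reporter.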

Experiment [2] deals with T1, androgen receptor (hAR). Description: biochemical. The format is binding. The procedure:
In order to examine binding ability of the agonists of the present invention to androgen receptors, the following in-vitro experiment was performed. African green monkey kidney fibroblast-like cell line, COS-7 (ATCC, #CRL-1651) was seeded in a 48-well plate at a density of 2.5×10^4 cells/well, and cultured for 24 hours. Then, a plasmid hAR-mixed medium was added thereto. […] Thereafter, the cells were lysed and the amount of [3H]MIB bound to the intracellular androgen receptors was measured using a radiation dosimeter.

The subject of the next experiment is castrated male rats. The experiment in a line: Efficacy test in castrated male rat (Hershberger assay). In kind it is in vivo, SD (Sprague-Dawley) rat. Conditions: castrated male SD rats, oral once a day for 14 days. How it is done:
SD (Sprague-Dawley) male rats (7-week-old) were castrated under ketamine/xylazine anesthesia, and 5 rats were randomly assigned to one group. From the next day, the agonists were dissolved in a vehicle solution and orally administered at a dose of 5 ml per kg once a day for 14 days. As the vehicle, DMSO, Co-solvent, and DW were prepared at a ratio of 4:80:16 (v/v/v), and Co-solvent was prepared by mixing PEG400, Ethanol, and Tween 80 at a ratio of 85:10:5 (v/v/v). 24 hours after last administration of the drug, their body weight was measured and killed. Thereafter, levator ani muscle, ventral prostate, and seminal vesicles were removed and weighed (Hershberger assay). The following Table 6 represents the result of the efficacy test in castrated male rats.

The mark [3] stands for this setting: 1 nM [3H]MIB, hAR-transfected COS-7 cells, 2 hours, read-out: IC50 [nM] (mean ± SE).

Read-outs that look alike come from different tables or passages of the source.

T1 sequence (P10275 whole entry): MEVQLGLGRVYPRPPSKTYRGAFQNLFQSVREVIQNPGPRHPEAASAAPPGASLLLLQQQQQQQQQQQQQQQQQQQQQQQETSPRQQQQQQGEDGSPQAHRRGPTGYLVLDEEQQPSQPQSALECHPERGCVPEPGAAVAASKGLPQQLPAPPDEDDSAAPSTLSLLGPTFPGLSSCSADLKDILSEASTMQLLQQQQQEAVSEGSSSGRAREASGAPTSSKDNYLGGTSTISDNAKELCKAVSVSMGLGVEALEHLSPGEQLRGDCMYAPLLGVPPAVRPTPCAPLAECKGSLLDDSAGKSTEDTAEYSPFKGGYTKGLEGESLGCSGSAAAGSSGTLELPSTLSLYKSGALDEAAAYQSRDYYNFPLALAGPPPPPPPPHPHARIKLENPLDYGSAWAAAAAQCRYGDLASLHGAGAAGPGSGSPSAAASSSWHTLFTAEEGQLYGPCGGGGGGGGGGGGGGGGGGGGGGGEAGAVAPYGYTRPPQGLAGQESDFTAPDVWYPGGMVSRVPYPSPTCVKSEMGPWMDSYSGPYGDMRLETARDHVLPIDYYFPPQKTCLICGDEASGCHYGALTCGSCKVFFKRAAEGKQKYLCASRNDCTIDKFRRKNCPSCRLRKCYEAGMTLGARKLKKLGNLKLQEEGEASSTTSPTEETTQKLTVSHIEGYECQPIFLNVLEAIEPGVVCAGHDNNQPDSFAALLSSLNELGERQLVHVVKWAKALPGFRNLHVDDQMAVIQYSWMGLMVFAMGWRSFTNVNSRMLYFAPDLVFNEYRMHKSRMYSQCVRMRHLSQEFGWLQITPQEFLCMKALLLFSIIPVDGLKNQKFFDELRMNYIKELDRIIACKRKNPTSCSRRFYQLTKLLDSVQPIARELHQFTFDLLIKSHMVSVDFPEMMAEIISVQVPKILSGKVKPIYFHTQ

`N#Cc1ccc(N2C[C@@H](CSc3ccc(Cl)cc3)O[C@@H]2C(F)(F)F)cc1C(F)(F)F` [Example 26, 4-((2R,5S)-5-(((4-chlorophenyl)thio)methyl)-2-(trifluoromethyl)oxazolidin-3-yl)-2-(trifluoromethyl)benzonitrile] returned a concentration for a half-maximal effect (EC50) on androgen receptor (hAR) [1] (EC50 [nM] (mean ± SE)) of 8.6 nM. Moreover, the half-maximal inhibitory concentration (IC50) on androgen receptor (hAR) [2] (setting [3]) is 43.6 nM.
On the same counts, the results for `N#Cc1ccc(N2C[C@@H](COc3ccc(F)c(F)c3)O[C@@H]2C(F)(F)F)cc1C(F)(F)F` [Example 10, 4-((2R,5S)-5-((3,4-difluorophenoxy)methyl)-2-(trifluoromethyl)oxazolidin-3-yl)-2-(trifluoromethyl)benzonitrile] are 11.1 nM and 6.3 nM.
At androgen receptor (hAR) [1] (EC50 [nM] (mean ± SE)), `N#Cc1ccc(OC[C@@H]2CN(c3ccc(C#N)c(C(F)(F)F)c3)[C@H](C(F)(F)F)O2)cc1` [Example 6, 4-((2S,5S)-5-((4-cyanophenoxy)methyl)-2-(trifluoromethyl)oxazolidin-3-yl)-2-(trifluoromethyl)benzonitrile] registered a concentration for a half-maximal effect (EC50) of 4.1 nM. The IC50 on androgen receptor (hAR) [2] (setting [3]) is 11 nM.
On the same counts, the results for `N#Cc1ccc(OC[C@@H]2CN(c3ccc(C#N)c(C(F)(F)F)c3)[C@@H](C(F)(F)F)O2)c(F)c1` [Example 11, 4-((2R,5S)-5-((4-cyano-2-fluorophenoxy)methyl)-2-(trifluoromethyl)oxazolidin-3-yl)-2-(trifluoromethyl)benzonitrile] are 4.5 nM and 10.5 nM.
The like results for `N#Cc1ccc(N2C[C@@H](COc3ccc([N+](=O)[O-])c(F)c3)O[C@@H]2C(F)(F)F)cc1C(F)(F)F` [Example 31] were, in that order, 17.7 nM and 14.1 nM.
The like results for `N#Cc1ccc(N2C[C@@H](COc3cc(F)c(F)cc3F)O[C@@H]2C(F)(F)F)cc1C(F)(F)F` [Example 13, 2-(trifluoromethyl)-4-((2R,5S)-2-(trifluoromethyl)-5-((2,4,5-trifluorophenoxy)methyl)oxazolidin-3-yl)benzonitrile] were, in that order, 9.9 nM and 14.5 nM.
Consider `N#Cc1ccc(N2C[C@H]([C@@H](O)C(F)(F)F)O[C@H]2C(F)(F)F)cc1C(F)(F)F` [Example 21, 4-((2S,5R)-5-((R)-2,2,2-trifluoro-1-hydroxyethyl)-2-(trifluoromethyl)oxazolidin-3-yl)-2-(trifluoromethyl)benzonitrile], for which, on androgen receptor (hAR) [2] (setting [3]), the IC50 came out at 1060 nM.
On the same count and under the same terms, next, `N#Cc1ccc(COC[C@H]2CN(c3ccc(C#N)c(C(F)(F)F)c3)[C@H](C(F)(F)F)O2)cc1` [Example 4, 4-((2S,5R)-5-(((4-cyanobenzyl)oxy)methyl)-2-(trifluoromethyl)oxazolidin-3-yl)-2-(trifluoromethyl)benzonitrile]: 657 nM; `N#Cc1ccc(N2C[C@H]([C@H](O)C(F)(F)F)O[C@H]2C(F)(F)F)cc1C(F)(F)F` [Example 22, 4-((2S,5R)-5-((S)-2,2,2-trifluoro-1-hydroxyethyl)-2-(trifluoromethyl)oxazolidin-3-yl)-2-(trifluoromethyl)benzonitrile]: 1870 nM; `CC(=O)Nc1ccc(OC[C@@H]2CN(c3ccc(C#N)c(C(F)(F)F)c3)[C@H](C(F)(F)F)O2)cc1` [Example 30, N-(4-(((2S,5S)-3-(4-cyano-3-(trifluoromethyl)phenyl)-2-(trifluoromethyl)oxazolidin-5-yl)methoxy)phenyl)acetamide]: 142 nM.
On the same count and under the same terms, next, `N#Cc1ccc(OC[C@H]2CN(c3ccc(C#N)c(C(F)(F)F)c3)[C@H](C(F)(F)F)O2)cc1` [Example 20, 4-((2S,5R)-5-((4-cyanophenoxy)methyl)-2-(trifluoromethyl)oxazolidin-3-yl)-2-(trifluoromethyl)benzonitrile]: 1080 nM.
Still for that read-out and setting: for `N#Cc1ccc(N2C[C@@H]([C@@H](O)C(F)(F)F)O[C@@H]2C(F)(F)F)cc1C(F)(F)F` [Example 23, 4-((2R,5S)-5-((R)-2,2,2-trifluoro-1-hydroxyethyl)-2-(trifluoromethyl)oxazolidin-3-yl)-2-(trifluoromethyl)benzonitrile] the value was 44.3 nM.
In the case of `N#Cc1ccc(N2C[C@@H]([C@H](O)C(F)(F)F)O[C@@H]2C(F)(F)F)cc1C(F)(F)F` [Example 24, 4-((2R,5S)-5-((S)-2,2,2-trifluoro-1-hydroxyethyl)-2-(trifluoromethyl)oxazolidin-3-yl)-2-(trifluoromethyl)benzonitrile], the IC50 at androgen receptor (hAR) [2] (setting [3]) is 141 nM.
Still for that read-out and setting: for `COc1ccc(OC[C@@H]2CN(c3ccc(C#N)c(C(F)(F)F)c3)[C@@H](C(F)(F)F)O2)cc1` [Example 27, 4-((2R,5S)-5-((4-methoxyphenoxy)methyl)-2-(trifluoromethyl)oxazolidin-3-yl)-2-(trifluoromethyl)benzonitrile] the value was 22.4 nM; for `N#Cc1ccc(N2C[C@@H](COc3ccc([N+](=O)[O-])cc3Cl)O[C@@H]2C(F)(F)F)cc1C(F)(F)F` [Example 12, 4-((2R,5S)-5-((2-chloro-4-nitrophenoxy)methyl)-2-(trifluoromethyl)oxazolidin-3-yl)-2-(trifluoromethyl)benzonitrile], 145 nM; for `CNC(=O)c1ccc(OC[C@@H]2CN(c3ccc(C#N)c(C(F)(F)F)c3)[C@@H](C(F)(F)F)O2)cc1` [Example 32, 4-(((2R,5S)-3-(4-cyano-3-(trifluoromethyl)phenyl)-2-(trifluoromethyl)oxazolidin-5-yl)methoxy)-N-methylbenzamide], 32.7 nM.
`N#Cc1ccc(OC[C@H]2CN(c3ccc(C#N)c(C(F)(F)F)c3)[C@@H](C(F)(F)F)O2)cc1` [Example 5, 4-((2R,5R)-5-((4-cyanophenoxy)methyl)-2-(trifluoromethyl)oxazolidin-3-yl)-2-(trifluoromethyl)benzonitrile]: the concentration for half-maximal inhibition (IC50) against androgen receptor (hAR) [2] was 91.6 nM.
For “(2R,5S)-N-(4-acetamidophenyl)-3-(3-chloro-4-nitrophenyl)-2-(trifluoromethyl)oxazolidine-5-carboxamide [Example 123]”, on androgen receptor (hAR) [1] (read-out: EC50 [nM] (mean ± SE)), the EC50 was 7.34 nM. Besides, the “levator ani muscle weight % relative to intact control group” value in the experiment on castrated male rats (0.03 mg/kg) came to 3.5 ± 0.5%; in the experiment on castrated male rats (0.1 mg/kg), 7.00 ± 0.7%; with castrated male rats (0.3 mg/kg), 14.7 ± 1.5%; in the experiment with castrated male rats (1 mg/kg), 23.0 ± 1.1%; in the experiment on castrated male rats (3 mg/kg) it was 40.2 ± 4.2%; with castrated male rats (10 mg/kg) it was 58.7 ± 4.1%. Besides, the “levator ani muscle weight % relative to intact control group” value with castrated male rats (30 mg/kg) came to 78.9 ± 4.0%; in the experiment with castrated male rats (100 mg/kg), 88.5 ± 4.7%. The “seminal vesicles weight % relative to intact control group” value in the experiment on castrated male rats (0.03 mg/kg) was 0.3 ± 0.0%; in the experiment on castrated male rats (0.1 mg/kg) it was 0.2 ± 0.0%; in the experiment with castrated male rats (0.3 mg/kg), 0.1 ± 0.0%; with castrated male rats (1 mg/kg) it was 0.5 ± 0.1%; with castrated male rats (3 mg/kg) it was 2.8 ± 1.2%; with castrated male rats (10 mg/kg) it was 11.0 ± 2.3%. Further, the “seminal vesicles weight % relative to intact control group” value in the experiment on castrated male rats (30 mg/kg) is recorded as 30.5 ± 5.7%; with castrated male rats (100 mg/kg), 58.7 ± 10.8%. For the same compound, the “ventral prostate weight % relative to intact control group” value is 0.5 ± 0.1% in the experiment on castrated male rats (0.03 mg/kg); 1.6 ± 0.2% in the experiment on castrated male rats (0.3 mg/kg); 0.7 ± 0.2% with castrated male rats (1 mg/kg); 5.6 ± 1.9% in the experiment on castrated male rats (3 mg/kg); 7.9 ± 2.2% in the experiment on castrated male rats (10 mg/kg); 23.0 ± 2.9% in the experiment with castrated male rats (30 mg/kg). Besides, the “ventral prostate weight % relative to intact control group” value in the experiment on castrated male rats (100 mg/kg) is 39.0 ± 9.8%.
With `N#Cc1ccc(N2C[C@@H](COc3ccc(C(=O)O)cc3)O[C@@H]2C(F)(F)F)cc1C(F)(F)F` [Example 9, 4-(((2R,5S)-3-(4-cyano-3-(trifluoromethyl)phenyl)-2-(trifluoromethyl)oxazolidin-5-yl)methoxy)benzoic acid], the IC50 against androgen receptor (hAR) [2] came out at 367 nM.
In the case of `COc1cccc(OC[C@@H]2CN(c3ccc(C#N)c(C(F)(F)F)c3)[C@@H](C(F)(F)F)O2)c1` [Example 28, 4-((2R,5S)-5-((3-methoxyphenoxy)methyl)-2-(trifluoromethyl)oxazolidin-3-yl)-2-(trifluoromethyl)benzonitrile], at androgen receptor (hAR) [2] (setting [3]), the IC50 was 77.2 nM.
Still for that read-out and setting: next, `N#Cc1ccc(N2C[C@@H](COc3ccc([N+](=O)[O-])cc3)O[C@H]2C(F)(F)F)cc1C(F)(F)F` [Example 35, 4-((2S,5S)-5-((4-nitrophenoxy)methyl)-2-(trifluoromethyl)oxazolidin-3-yl)-2-(trifluoromethyl)benzonitrile]: 185 nM.

In general, EC50 refers to the concentration that produces a half-maximal response. A word on the IC50: it is the point on the concentration scale where inhibition reaches its midpoint.
